The results in this text go back to US6441000B1, “Compounds useful in therapy” (Pfizer Inc, priority 1999, dated 2002).

pKi: −log10 of the molar value.

For the assay, the target named is T1, mu opioid receptor (Canis lupus familiaris, UniProt A0A0F6TMT6).
T1 construct: from tissue; host or cells: beagle brain without cerebellum, membrane homogenate
T1 sequence (A0A0F6TMT6 1-401): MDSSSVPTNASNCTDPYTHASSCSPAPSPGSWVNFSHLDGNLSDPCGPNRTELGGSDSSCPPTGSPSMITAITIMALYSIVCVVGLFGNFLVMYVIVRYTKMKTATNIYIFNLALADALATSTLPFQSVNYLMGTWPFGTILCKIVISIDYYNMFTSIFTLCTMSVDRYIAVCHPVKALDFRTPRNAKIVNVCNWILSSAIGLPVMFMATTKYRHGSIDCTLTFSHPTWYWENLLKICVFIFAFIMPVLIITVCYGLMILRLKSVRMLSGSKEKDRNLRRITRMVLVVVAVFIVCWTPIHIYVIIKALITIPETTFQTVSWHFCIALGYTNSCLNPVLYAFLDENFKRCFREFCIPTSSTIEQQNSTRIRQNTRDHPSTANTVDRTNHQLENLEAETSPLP
Put plainly: mu opioid receptor binding assay (displacement of 3H-DAMGO) in dog brain membranes. The settings on record: 3H ligand DAMGO, room temperature 90 minutes, read-out: Ki values for the μ receptor. The protocol: The assays were conducted by the following procedure.
Laboratory bred beagles were used as a source of dog brain tissue. Animals were euthanised, their brains removed and the cerebellum discarded. The remaining brain tissue was sectioned into small pieces approximately 3 g in weight and homogenised in 50 mM Tris pH 7.4 buffer at 4° C. using a Kinematica Polytron™ tissue homogeniser. The resulting homogenate was centrifuged at 48,400×g for 10 minutes and the supernatant discarded. The pellet was resuspended in Tris buffer and incubated at 37° C. for 10 minutes. Centrifugation, resuspension and incubation steps were repeated twice more, and the final pellet was resuspended in Tris buffer and stored at −80° C. Membrane material prepared in this manner could be stored for up to four weeks prior to use.
For mu assays, increasing concentrations of experimental compound, (5×10^−12 to 10^−5 M), Tris buffer and ^3H ligand, ([D-Ala^2,N-Me-Phe^4,Gly-ol^5]-Enkephalin, DAMGO), were combined in polystyrene tubes. The reaction was initiated by the addition of tissue, and the mixture was incubated at room temperature for 90 minutes. The reaction was terminated by rapid filtration using a Brandel Cell Harvester™ through Betaplate™ GF/A glass fibre filters pre-soaked in 50 mM Tris pH 7.4, 0.1% polyethylenimine buffer. The filters were then washed three times with 0.5 mL ice-cold Tris pH 7.4 buffer. Washed filters were placed in bags and Starscint™ scintillant added. Bags containing the filters and scintillant were heat sealed and counted by a Betaplate™ 1204 beta counter.
Duplicate samples were run for each experimental compound and the data generated was analysed using IC50 analysis software in Graphpad Prism.
Ki values were calculated using Graphpad Prism according to the following formula:
Ki=IC50/1+[^3H ligand]/KD
where IC50 is the concentration at which 50% of the ^3H ligand is displaced by the test compound and KD is the dissociation constant for the ^3H ligand at the receptor site.
As usually defined, the pKi is the Ki on a negative log10 scale, so that one unit is a factor of ten. For the compound `CCCCCCN1CCC(C)(c2ccc3[nH]c(C)nc3c2)C(C)C1` (racemic) [Example 3, Trans-(±)-2-Methyl-5-(1-hexyl-3,4-dimethyl-4-piperidinyl)-1H-benzimidazole], the negative logarithm of the Ki (pKi) was at least 5.40.
As for `CCCCCCN1CCC(C)(c2ccc3[nH]c(OC)nc3c2)C(C)C1` (racemic) [Example 7, Trans-(±)-2-Methoxy-5-(1-hexyl-3,4-dimethyl-4-piperidinyl)-1H-benzimidazole], the pKi is at least 5.40.
The figure for `CCCCCCN1CCC(C)(c2ccc3[nH]c(CC)nc3c2)C(C)C1` (racemic) [Example 12, Trans-(±)-2-ethyl-5-(1-Hexyl-3,4-dimethyl-4-piperidinyl)-1H-benzimidazole] is at least 5.40.
On to `Cc1cccc(CCN2CCC(C)(c3ccc4[nH]c(C(F)(F)F)nc4c3)C(C)C2)c1` (racemic) [Example 18, Trans-(±)-2-(Trifluoromethyl)-5-[1-(3-methylphenethyl)-3,4-dimethyl-4-piperidinyl]-1H-benzimidazole], for which the pKi is at least 5.40.
With `CC(C)CCCCN1CCC(C)(c2ccc3[nH]cnc3c2)C(C)C1` (racemic) [Example 21, Trans-(±)-5-[1-(5-Methylhexyl)-3,4-dimethyl-4-piperidinyl]-1H-benzimidazole], the negative-log Ki (pKi) was at least 5.40.
For `CCCCCCN1CCC(C)(c2ccc3nc(C)oc3c2)C(C)C1` (racemic) [Example 28, Trans-(±)-2-Methyl-6-(1-hexyl-3,4-dimethyl-4-piperidinyl)-1,3-benzoxazole], the negative-log Ki (pKi) is at least 5.40.
